{
  "source": "patent US20050164994A1",
  "about": "“Treatment of genitourinary tract disorders” (Control Deliver Systems, Inc., priority 2001, published 2005)",
  "test": "Canine study: codrug remaining in 5 mg pellets implanted in the prostate",
  "format": "in vivo",
  "conditions": "dog prostate, 5 mg implant",
  "experimental": "A canine study was performed using a codrug of 5-FU and fluocinolone acetonide (Fa) to evaluate the release rate of the codrug in prostate tissue. The results of that study are detailed in FIGS. 1-3. Two 5 mg pellets of the codrug were implanted in the prostate, and the animals were humanely sacrificed on postoperative days, as indicated. The prostates were removed and levels of the codrug in the pellets determined.",
  "note": "“And” between values parts separate entries of the source, which are not always exact repeats. Identical values can stand only once.",
  "data": [
    {"smiles": "CC1(C)O[C@@H]2CC3C4C[C@H](F)C5=CC(=O)C=C[C@]5(C)[C@@]4(F)[C@@H](O)C[C@]3(C)[C@]2(C(=O)COC(=O)CC(=O)n2c(=O)[nH]cc(F)c2=O)O1", "note": "(some centres unmarked) [5-FU + FA]", "values": [
      {"measurement": "Codrug Remaining (single pellet)", "setting": "sacrificed at 28 days", "result": "4.27 mg and 4.24 mg and 4.04 mg and 3.50 mg and 4.14 mg and 4.18 mg and 4.12 mg and 4.23 mg"},
      {"measurement": "Codrug Remaining (single pellet)", "setting": "sacrificed at 42 days", "result": "3.50 mg and 3.33 mg and 3.89 mg and 4.12 mg"}
    ]}
  ]
}
